According to PMC5872703, “The Postprandial Anti-Hyperglycemic Effect of Pyridoxine and Its Derivatives Using In Vitro and In Vivo Animal Models” (Nutrients, 2018):
Values joined by “and” are separate entries in the source; they are usually repeats but may differ in a detail not shown here. Equal values may be shown once. Marks after values point to notes of the source that are not given here.

What was measured:
Sprague-Dawley (SD) rats [1] = assay: Sucrose loading test, postprandial blood glucose; type: in vivo, rat; details: for BGL AUCt / blood glucose level / change (increase) of blood glucose level: SD rats; for BGL AUCt: sucrose 2.0 g/kg; for blood glucose level / change (increase) of blood glucose level: sucrose 2.0 g/kg oral, 30 min after administration
Experimental: (§1) All animal procedures were approved by Institutional Animal Care and Use Committee (IACUC) of the Hannam University (Approval number: HNU2017-003). Four-week-old male SD rats were purchased from Raon Bio Co. (Gyeonggi-do, Korea) and fed a solid diet (Raon Bio Co., Gyeonggi-do, Korea) for one week. The rats were housed in a ventilated room at 23 ± 2 °C with 50 ± 5% relative humidity, and under an alternating 12 h light/dark cycle. […] The blood samples were then taken from the tail after administration and blood glucose levels were measured at 0, 0.5, 1, 2, and 3 h.

Sprague-Dawley (SD) rats [2] = assay: Starch loading test, postprandial blood glucose; type: in vivo, rat; details: for BGL AUCt / blood glucose level / increase in blood glucose level: SD rats; for BGL AUCt: starch 2.0 g/kg; for blood glucose level / increase in blood glucose level: starch 2.0 g/kg oral, 30 min after administration
Experimental: as §1

Rat Intestinal Maltase = assay: Maltase inhibition assay (rat intestinal acetone powder); type: biochemical; details: for IC50 Rat Intestinal Maltase: mean ± S.D.
Experimental: (§2) The crude enzyme solution prepared from rat intestinal acetone powder Sigma-Aldrich Co. (St. Louise, MO, USA) was used as the small intestinal maltase, sucrose, and glucoamylase, showing specific activities of 0.70, 0.34, and 0.45 units/mL, respectively. Rat intestinal acetone powder (1.0 g) was suspended in 3 mL of 0.1 M sodium phosphate buffer, and the suspension was sonicated 12 times for 30 s at 4 °C. After centrifugation (10,000 × g, 30 min, 4 °C), the resulting supernatant was used for the assay. Maltase, sucrose, and glucoamylase inhibitory activity were assay by modifying a method developed by Dahlqvist. The inhibitory activity was determined by incubating a solution of an enzyme (50 μL), 0.1 M phosphate buffer (pH 7.0, 100 μL) containing 0.4 mg/mL sucrose or maltose or 1% soluble starch, and a solution (50 μL) with various concentrations of sample solution (between 0.05 and 1.0 mM) at 37 °C for 30 min. The reaction mixture was heated in a boiling water bath to stop the reaction for 10 min, and the amount of liberated glucose was then measured by the glucose oxidase. The inhibitory activity was calculated from the formula as follows. Inhibition (%) = (C − T)/C × 100, where C is the enzyme activity without inhibitor, and T is the enzyme activity with inhibitor.

[3] = test system: rat intestinal α-glucosidase; assay: Rat intestinal α-glucosidase inhibition assay (pNPG); type: biochemical; details: for IC50 Rat intestinal α-Glucosidase: mean ± S.D.
Experimental: The rat intestinal α-glucosidase assay was administered as per the method of Kwon et al. with slight modification. A total of 1 g of rat-intestinal acetone powder was suspended in 3 mL of 0.1 M sodium phosphate buffer (pH 6.9), and the suspension was sonicated 12 times for 30 s at 4 °C. After centrifugation (10,000× g, 30 min, 4 °C), the resulting supernatant was used for the assay. Sample solution (50 μL) and 0.1 phosphate buffer (pH 6.9, 100 μL) containing α-glucosidase (Sigma-Aldrich, St. Luis, MO, USA) solution (1.0 U/mL) was incubated at 37 °C for 10 min. After pre-incubation, 5 mM p-nitrophenyl-α-D-glucopyranoside solution (50 μL) in 0.1 M phosphate buffer (pH 6.9) was added to each well at timed intervals. The reaction mixtures were incubated at 37 °C for 30 min. Before and after incubation, absorbance was read at 405 nm and compared to a control, which had 50 μL of buffer solution in place of the extract by micro-plate reader (SUNRISE; Tecan Trading AG, Salzburg, Austria). The α-glucosidase inhibitory activity was expressed as inhibition % and was calculated as follows: Inhibition(%)=(ΔA 405 (Control)−ΔA 405(Extract)/ΔA 405 (Control))×100

[4] = target: Rat Intestinal Glucoamylase (Rattus norvegicus, UniProt D3ZTX4); assay: Glucoamylase inhibition assay (rat intestinal acetone powder); type: biochemical; details: read-out: glucoamylase inhibition
Experimental: as §2

[5] = target: T1, porcine pancreatic α-amylase (Sus scrofa, UniProt P00690); assay: Porcine pancreatic α-amylase inhibition assay; type: biochemical; details: for IC50: mean ± S.D.
T1 sequence (P00690 16-511): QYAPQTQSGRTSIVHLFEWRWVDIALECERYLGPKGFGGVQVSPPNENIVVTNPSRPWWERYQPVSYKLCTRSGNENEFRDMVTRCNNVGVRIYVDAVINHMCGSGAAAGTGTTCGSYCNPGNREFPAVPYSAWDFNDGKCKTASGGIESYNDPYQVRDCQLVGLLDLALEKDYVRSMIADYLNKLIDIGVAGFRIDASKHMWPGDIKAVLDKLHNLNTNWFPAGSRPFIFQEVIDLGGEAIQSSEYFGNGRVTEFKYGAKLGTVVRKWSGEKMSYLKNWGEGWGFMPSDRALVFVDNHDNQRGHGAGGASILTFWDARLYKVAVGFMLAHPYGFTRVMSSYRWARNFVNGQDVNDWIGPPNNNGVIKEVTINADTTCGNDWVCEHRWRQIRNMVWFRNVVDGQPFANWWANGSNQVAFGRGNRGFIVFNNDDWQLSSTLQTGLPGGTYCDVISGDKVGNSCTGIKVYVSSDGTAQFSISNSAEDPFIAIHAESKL
Experimental: The porcine pancreatic α-amlyase inhibition assay was administered as per the method of Kwon et al. Sample solution (200 μL) and 0.02 M sodium phosphate buffer (pH 6.9 with 0.006 M sodium chloride, 500 μL) containing α-amylase solution (0.5 mg/mL, 5.0 MU/mL) were incubated at 25 °C for 10 min. After preincubation, 500 μL of a 1% starch solution in 0.02 M sodium phosphate buffer was added. The reaction mixture was then incubated at 25 °C for 10 min. The reaction was stopped with 1.0 mL of dinitrosalicylic acid (DNS). The reaction mixture was then incubated in a boiling water bath for 5 min and cooled to room temperature. The reaction mixture at 540 nm with ELISA microplate reader (SUNRISE; Tecan Trading AG, Saltzburg, Austria).

Rat Intestinal SUCRASE = target: T2, Rat Intestinal SUCRASE (Rattus norvegicus, UniProt P23739); assay: Sucrase inhibition assay (rat intestinal acetone powder); type: biochemical; details: mean ± S.D.
T2 construct: The crude enzyme solution prepared from rat intestinal acetone powder; tissue Sigma-Aldrich Co; host or cells: rat intestine (acetone powder)
T2 sequence (P23739 whole entry): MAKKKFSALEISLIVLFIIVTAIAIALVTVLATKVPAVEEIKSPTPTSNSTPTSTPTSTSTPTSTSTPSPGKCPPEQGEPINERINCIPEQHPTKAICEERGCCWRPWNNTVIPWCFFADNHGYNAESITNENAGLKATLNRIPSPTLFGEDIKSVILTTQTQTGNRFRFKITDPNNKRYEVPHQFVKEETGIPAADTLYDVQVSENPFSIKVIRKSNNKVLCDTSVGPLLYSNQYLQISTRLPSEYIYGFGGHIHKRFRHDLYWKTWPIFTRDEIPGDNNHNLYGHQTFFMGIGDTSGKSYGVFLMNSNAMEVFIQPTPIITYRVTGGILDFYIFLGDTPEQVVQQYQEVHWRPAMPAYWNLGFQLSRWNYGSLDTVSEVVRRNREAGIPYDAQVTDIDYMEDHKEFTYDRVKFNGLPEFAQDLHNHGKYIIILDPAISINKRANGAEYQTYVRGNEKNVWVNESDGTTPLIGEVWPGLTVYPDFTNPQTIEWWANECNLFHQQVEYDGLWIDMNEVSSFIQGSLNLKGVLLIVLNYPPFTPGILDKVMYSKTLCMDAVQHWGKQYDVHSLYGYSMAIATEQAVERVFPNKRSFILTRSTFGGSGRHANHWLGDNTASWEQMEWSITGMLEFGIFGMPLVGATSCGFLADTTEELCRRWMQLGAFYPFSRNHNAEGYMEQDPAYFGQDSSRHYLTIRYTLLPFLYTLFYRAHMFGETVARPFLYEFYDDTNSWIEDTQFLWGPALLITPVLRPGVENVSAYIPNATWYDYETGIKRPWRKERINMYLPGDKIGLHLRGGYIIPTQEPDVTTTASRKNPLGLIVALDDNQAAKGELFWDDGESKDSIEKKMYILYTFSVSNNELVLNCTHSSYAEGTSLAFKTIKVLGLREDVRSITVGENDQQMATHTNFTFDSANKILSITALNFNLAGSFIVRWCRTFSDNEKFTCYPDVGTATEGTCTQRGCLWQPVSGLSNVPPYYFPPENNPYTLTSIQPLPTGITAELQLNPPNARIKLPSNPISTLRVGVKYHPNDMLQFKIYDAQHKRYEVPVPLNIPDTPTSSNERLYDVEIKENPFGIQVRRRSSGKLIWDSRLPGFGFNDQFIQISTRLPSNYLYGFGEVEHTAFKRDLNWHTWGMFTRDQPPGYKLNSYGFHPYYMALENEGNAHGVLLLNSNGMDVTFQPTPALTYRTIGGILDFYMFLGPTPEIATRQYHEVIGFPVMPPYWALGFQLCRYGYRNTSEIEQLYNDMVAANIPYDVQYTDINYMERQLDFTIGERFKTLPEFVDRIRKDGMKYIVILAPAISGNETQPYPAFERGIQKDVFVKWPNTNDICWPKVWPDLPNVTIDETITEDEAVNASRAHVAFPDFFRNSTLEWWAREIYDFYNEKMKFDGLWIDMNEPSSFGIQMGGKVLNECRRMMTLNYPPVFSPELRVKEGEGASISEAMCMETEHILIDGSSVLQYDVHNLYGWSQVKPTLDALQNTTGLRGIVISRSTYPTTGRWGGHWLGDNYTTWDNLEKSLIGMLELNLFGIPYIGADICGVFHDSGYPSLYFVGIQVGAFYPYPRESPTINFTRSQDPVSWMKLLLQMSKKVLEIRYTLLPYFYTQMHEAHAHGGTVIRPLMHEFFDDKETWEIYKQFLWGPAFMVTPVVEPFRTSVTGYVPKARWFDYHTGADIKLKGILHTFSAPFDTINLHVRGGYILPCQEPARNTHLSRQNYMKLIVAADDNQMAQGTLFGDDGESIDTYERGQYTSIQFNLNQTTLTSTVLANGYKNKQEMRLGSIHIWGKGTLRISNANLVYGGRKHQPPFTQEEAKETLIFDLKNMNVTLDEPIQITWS
Experimental: as §2

[6] = sucrose loading, 30 min, vs pyridoxine-treated group
[7] = starch loading, 30 min, vs pyridoxine-treated group
[8] = starch loading, 30 min, vs starch (control) group
[9] = two highest tested doses 5 and 7 mg/mL

Row | Compound | IC50 Rat Intestinal Maltase (Rat Intestinal Maltase) | blood glucose level (Sprague-Dawley (SD) rats [1]) | change (increase) of blood glucose level (Sprague-Dawley (SD) rats [1]) | BGL AUCt (Sprague-Dawley (SD) rats [1]; sample 0.1 g/kg oral) | IC50 Rat intestinal α-Glucosidase [3] | blood glucose level (Sprague-Dawley (SD) rats [2]) | increase in blood glucose level (Sprague-Dawley (SD) rats [2]) | BGL AUCt (Sprague-Dawley (SD) rats [2]; sample 0.1 g/kg oral) | IC50 [5] | pancreatic α-amylase inhibitory effect [5, 9] | IC50 (Rat Intestinal SUCRASE) | further results
1 | C[C@H]1O[C@H](O[C@H]2[C@H](O)[C@@H](O)[C@@H](O[C@H]3[C@H](O)[C@@H](O)C(O)O[C@@H]3CO)O[C@@H]2CO)[C@H](O)[C@@H](O)[C@@H]1N[C@H]1C=C(CO)[C@@H](O)[C@H](O)[C@H]1O (stereo partly drawn) [Acarbose, reference compound] |  |  |  |  |  |  |  |  |  |  |  | BGL AUCt (Sprague-Dawley (SD) rats [1]; Acarbose 0.005 g/kg oral): 237.94 ± 8.82 ^a h∙mg/dL; BGL AUCt (Sprague-Dawley (SD) rats [2]; Acarbose 0.005 g/kg oral): 228.88 ± 13.09 ^a h∙mg/dL
2 | Cc1ncc(CO)c(C=O)c1O [Pyridoxal] | 0.38 mg/mL and 0.37 ± 0.13 ^b mg/mL | 164.74 ± 12.06 mg/dL | 64.88 ± 12.06 mg/dL | 272.99 ± 5.96 ^b h∙mg/dL | 4.14 mg/mL and 4.15 ± 0.17 ^b mg/mL | 175.36 ± 10.84 mg/dL | 79.78 ± 10.84 mg/dL | 268.27 ± 8.80 ^b h∙mg/dL | 77.3 ± 7.3 mM | showed α-amylase inhibitory effects | 1.91 ± 0.179 mM | maltase inhibitory activity (Rat Intestinal Maltase; 0.5 mg/mL): 48.39%; maltase inhibitory activity (Rat Intestinal Maltase; 1 mg/mL): 70.10%; maltase inhibitory activity (Rat Intestinal Maltase; 2 mg/mL): 83.29%; blood glucose reduction compared to control (Sprague-Dawley (SD) rats [1]; at 30 min, loading test not given): around 18%; decrease of maximum blood glucose level (Cmax) compared to control (Sprague-Dawley (SD) rats [1]; sucrose loading test, p < 0.05): about 18%; blood glucose level, less than that of pyridoxine-treated group (Sprague-Dawley (SD) rats [1]; [6]): 27.76 mg/dL; change of blood glucose level, lower than pyridoxine-treated group (Sprague-Dawley (SD) rats [1]; [6]): 27.98 mg/dL; blood glucose level, less than that of sucrose-treated group (Sprague-Dawley (SD) rats [1]; sucrose loading, 30 min, vs sucrose (control) group): 35.89 mg/dL; α-glucosidase inhibition ([3]; highest tested dose 7 mg/mL): 79.83%; decrease of maximum blood glucose level (Cmax) compared to control (Sprague-Dawley (SD) rats [2]; starch loading test, p < 0.05): ~19%; increase in blood glucose level, less than that of pyridoxine-treated group (Sprague-Dawley (SD) rats [2]; [7]): 27.91 mg/dL; suppression of blood glucose level compared to pyridoxine-treated group (Sprague-Dawley (SD) rats [2]; [7]): 26.41 mg/dL; increase in blood glucose level, less than that of starch group (Sprague-Dawley (SD) rats [2]; [8]): 44.45 mg/dL; suppression of blood glucose level compared to starch group (Sprague-Dawley (SD) rats [2]; [8]): 41.56 mg/dL; inhibition at 200 µg/mL [4]: 42.8%; inhibition at 500 µg/mL [4]: 66.1%; inhibition at 1000 µg/mL [4]: 78.6%
3 | Cc1ncc(CO)c(CN)c1O [Pyridoxamine] | 1.08 ± 0.10 ^a mg/mL |  |  | 269.14 ± 13.40 ^b h∙mg/dL | 4.85 ± 0.06 ^a mg/mL |  |  | 275.10 ± 7.31 ^b h∙mg/dL | 88.8 mM | showed α-amylase inhibitory effects | 2.08 mM | 
4 | Cc1ncc(CO)c(CO)c1O [Pyridoxine] | 0.87 ± 0.08 ^a mg/mL | 192.50 ± 10.10 mg/dL | 92.86 ± 10.10 mg/dL | 290.64 ± 15.55 ^c h∙mg/dL | 5.02 ± 0.05 ^a mg/mL | 201.78 ± 18.99 mg/dL | 107.69 ± 18.99 mg/dL | 274.28 ± 15.62 ^b h∙mg/dL | 137 mM |  | 1.89 mM | pancreatic α-amylase inhibitory effect ([5]; highest tested dose 7 mg/mL): no inhibitory effects
